# Test results taken from patent publication US20110318272A1, “PESTICIDAL MIXTURES GIVING S[…]” (priority 2010, published 2011).
# Entries after “also recorded” stand apart in the source; their conditions may differ. Where two headings read alike, the source gives them in different places.
# What was measured:
# Tetranychus urticae = experiment: Leaf disc track-sprayer bioassay against red spider mite; type: in vivo; settings: for Concentration effect ca LD25 3DAA / Concentration effect ca LD50 3DAA: T. urticae; for activity against T. urticae when applied alone: range-finding assay
# Protocol: Test arenas consisted of excised leaf discs of the host plant Phaseolus vulgaris infested with the target organism, Tetranychus urticae. A track sprayer was used to spray the test solutions at an application volume of 200 L/ha. Assessment of mortality (survival), any other sub lethal effects and phytotoxicity were carried out at 24 hours and 72 hours post application (3DAA).
# Myzus persicae = settings: for Concentration effect ca LD25 3DAA: M. persicae; for aphicidal activity against M. persicae when applied alone: range-finding assay; for pesticidal activity against M. persicae, product alone in mixture study: alone at rate taken as ca. LD25 (BUGOIL 10 mL/L, imidacloprid 0.1, indoxacarb 100, spinosad 1 g (a.i.)/ha)
# Protocol: Test arenas consisted of excised leaf discs of the host plant infested with the target organism.
# Test arenas consisted of excised leaf discs of the host plant Brassica rapa chinensis infested with the target organism, Myzus persicae. A track sprayer was used to spray the test solutions at an application volume of 200 L/ha. Assessment of mortality (survival), any other sub lethal effects and phytotoxicity were carried out at 24 hours and 72 hours post application (3DAA).
# Spodoptera litura = experiment: Field study, cutworm on eggplant; type: in vivo; settings: 7 DAA
# Protocol: (§1) For the field experiments described in Examples 14-16, the numbers of target organisms on host plants were assessed before treatment and after treatment.
# (§2) Field studies as described below were carried out to determine the efficacy of BUGOIL®, lambda cyhalothrin, imidacloprid, and abamectin, alone and in mixtures with BUGOIL®, for control of the whitefly Bemisia tabaci, the leafhopper Empoasca biggutula, the aphid Aphis gosspyii, the shoot/fruit borer Leucinodes orbonalis and the cutworm Spodoptera litura on the eggplant cultivar “Casino” (Solanum melongena cv Casino). In the following studies, the dose (N) is the label dose for each product, expressed in concentration (grams active ingredient) per liter of spray mixture (a.i.)/l).
# Lambda cyhalothrin is formulated as Karate® (KARATE® with Zeon Technology, Syngenta Phillipines, Inc., Batch No. JAK8,18179, Production Date Nov. 11, 2008, Phillipines Department of Agriculture, Fertilizer and Pesticides Authority (FPA) Reg. No. 011-204-0396), where the dose prior to dilution=N=label dose=0.8 g (a.i.)/l (rated adapted to lepidopterian and leafhopper pests).
# (§3) Imidacloprid is formulated as CLIMAX® (CLIMAX® 200 SL, Bayer CropScience, Inc., Batch No. 81001025, Production Date Feb. 22, 2005, FPA Reg. No. 284-240-0761 where the dose prior to dilution=N=label dose=0.15 g (a.i.)/l.
# (§4) Abamectin is formulated as AGRI-MEK® (AGRI-MEK® 1.8 EC, Syngenta Phillipines, Inc., FPA Reg. No. 011-234-0791), where the dose prior to dilution=N=label dose=0.018 g (a.i.)/l.
# Trialeurodes sp. = experiment: Field study, adult whitefly on zucchini; type: in vivo; settings: FIG. 12, imidacloprid alone at N/2 dilution
# Protocol: as §1
# Field studies as described below were carried out to determine the efficacy of BUGOIL® alone, lambda cyhalothrin alone, imidacloprid alone, abamectin alone, and mixtures of BUGOIL® with lambda cyhalothrin, imidacloprid, or abamectin, for control of adult whiteflies of different whitefly species, on zucchini and cucumber. In the following studies, the dose (N) is the label dose for each product, expressed in concentration (grams active ingredient) per liter of spray mixture (a.i.)/1).
# Empoasca biggutula = experiment: Field study, leafhopper on eggplant; type: in vivo
# Protocol: as §1, §2, §3, §4
# Bemisia tabaci = experiment: Field study, adult whitefly on eggplant; type: in vivo; settings: over a 14 day test period, product alone
# Protocol: as §1, §2, §3
# [1] = test system: sucking insect pests (whitefly, leafhoppers and aphids); experiment: Field study, sucking insect pests on eggplant; type: in vivo; settings: abamectin as AGRI-MEK 1.8 EC, mixtures at reduced rates, sucking insect and lepidopteran pests
# Protocol: as §1, §2
# [2] = alone at recommended application rate (N)
# [3] = 72 hours, *not necessarily at the LD25 level, little or no response to the dose range
# [4] = 72 hours, *not necessarily at the LD50 level, little or no response to the dose range
Compound,Concentration effect ca LD25 3DAA (Tetranychus urticae; 72 hours after application),Concentration effect ca LD50 3DAA (Tetranychus urticae; 72 hours after application),activity against T. urticae when applied alone (Tetranychus urticae; 72 hours),Concentration effect ca LD25 3DAA (Myzus persicae; 72 hours after application),aphicidal activity against M. persicae when applied alone (Myzus persicae; 72 hours),"control of cutworm, S litura (Spodoptera litura; [2])",Concentration effect ca LD25 3DAA (Tetranychus urticae; [3]),Concentration effect ca LD50 3DAA (Tetranychus urticae; [4]),Concentration effect ca LD25 3DAA (Myzus persicae; [3]),"pesticidal activity against M. persicae, product alone in mixture study (Myzus persicae; 72 hours)",other results
"CC1(C)[C@H](C(=O)O[C@H](C#N)c2cccc(Oc3ccccc3)c2)[C@@H]1/C=C(\Cl)C(F)(F)F (racemic) [lambda-cyhalothrin, Lambda-cyhalothrin]",~0.05 g a.i./ha,~0.1 g a.i./ha,active,~0.01 g a.i./ha,high aphicidal activity,around 60%,,,,,"pesticidal activity against T. urticae in mixture study (Tetranychus urticae; FIG. 4B, BUGOIL at ca. LD25 (5 mL/L), lambda-cyhalothrin at ca. LD25 (0.05 g (a.i.)/ha), mixtures Treatments 3, 4, 5, 7, 8, 72 hours): showed pesticidal activity"
"O=[N+]([O-])NC1=NCCN1Cc1ccc(Cl)nc1 [imidacloprid, (2E)-1-[(6-chloro-3-pyridinyl)methyl]-N-nitro-2-imidazolidinimine]",,,minimal activity,~0.1 g a.i./ha,active,around 60%,~100 g a.i./ha,~400 g a.i./ha,,,"mortality rates (Myzus persicae; range finder assay, concentrations of 1 g a.i./ha and above): greater than 90%; control of adult whiteflies (Trialeurodes sp.): 30-40%; control of leafhoppers (Empoasca biggutula; 1 HAA, imidacloprid alone at half the normal rate (½ N)): 37%; control of adult whitefly, B. tabaci (Bemisia tabaci): ≤ 50%"
"COC(=O)N(C(=O)N1CO[C@@]2(C(=O)OC)Cc3cc(Cl)ccc3C2=N1)c1ccc(OC(F)(F)F)cc1 [indoxacarb, methyl (4aS)-7-chloro-2,5-dihydro-2-[[(methoxycarbonyl)[4-(trifluoromethoxy)phenyl]amino]carbonyl] indeno[1,2-e][1,3,4]oxadiazine-4a(3H)-carboxylate]",,,minimal activity; also recorded: not shown to be active,,little aphicidal activity,,~100 g a.i./ha,~400 g a.i./ha,~100 g a.i./ha,did not have measurable pesticidal activity,
Abamectin,~0.025 g a.i./ha,~0.040 g a.i./ha,active,~5 g a.i./ha,active,,,,,,"Observed mean % mortality of T urticae (Tetranychus urticae; 0.25 g abamectin/L alone): 10%; Concentration effect ca LD50 3DAA (Tetranychus urticae; 72 hours after application, listed as Abamectin (Vertan)): ~0.04 g a.i./ha; mortality rate (Myzus persicae; applied as VERTAN at LD25 (5 g (a.i.)/ha) or above, 72 hours): ~100%; control of leafhopper E. biggutula (Empoasca biggutula; 3 days after application 1, BUGOIL alone at 5 mL/L): 78%; control of leafhopper E. biggutula (Empoasca biggutula; 3 days after application 2, BUGOIL alone at 5 mL/L): 66%; control of leafhopper E. biggutula (Empoasca biggutula; 3 days after application 3, BUGOIL alone at 5 mL/L): 49%; control of leafhopper E biggutula (Empoasca biggutula; single application, 3 days after application): around 80%; control of cutworm, S litura (Spodoptera litura; abamectin alone): 70%; control of eggplant pests [1]: good effects"
Spinosad,~10 g a.i./ha,~50 g a.i./ha,a dose response to spinosad was observed,,variable aphicidal activity,,,,~10 g a.i./ha,no measurable pesticidal activity,Observed mean % mortality of T urticae (Tetranychus urticae; 10 g spinosad/L alone): 8%
